Assay results from article PMC2063203, “The renal effects of the water-soluble, non-folylpolyglutamate synthetase-dependent thymidylate synthase inhibitor ZD9331 in mice” (British Journal of Cancer, 1998).
Values after ≈ are worked out from the molar mass of the structure shown. Values joined by “and” are separate entries in the source; they are usually repeats but may differ in a detail not shown here. Equal entries are not always repeated. Where two headings read alike, the source gives them in different places.

Tests used:
[1] = Kidney drug distribution and kidney-plasma ratios (HPLC); type: in vivo, mice; settings: for Cmax / Tmax / AUC(0-t): mouse, DBA-2 mice; for AUC(0-t): read-out: AUC0-8h
Protocol: British Journal of Cancer (1998) 78(11), 1457-1463 ? […] In contrast to Tomudex (ZD1694), ZD9331 may therefore be active against tumours with low FPGS activity. […] In view of the history of renal toxicity with some earlier TS inhibitors and the possible therapeutic use of bolus ZD9331, we have examined the effects of bolus ZD9331 dose and route of administration on plasma and kidney pharmacokinetics and renal function in mice. Renal function was assessed by measuring [14C]inulin clearance, and drug concentrations were assayed by reverse-phase high-performance liquid chromatography (HPLC). […] Kidney drug concentrations were slightly elevated in iv.- versus i.p.-treated animals at the low dose (50 mg kg-'), with a correspondingly larger area under the curve. However, at the highest dose (200 mg kg-'), peak kidney drug concentrations were 20-fold higher following i.v. administration than after i.p., with marked kidney retention, resulting in a 50-fold greater kidney drug exposure for the i.v. versus the i.p. route. […] These adverse effects can be readily overcome by i.p. administration, indicating the likely need for short infusions in clinical settings. […] Early studies established that nephrotoxicity may be a result of poor aqueous solubility of 2-amino compounds such as CB3717, and it was shown that 2-desamino CB3717 was more water soluble and less nephrotoxic (Jones et al, 1989; 1996). […] These polyglutamate forms also exibit intra- cellular retention, which may contribute to toxicity as well as anti- tumour activity. […] Such compounds might be expected to show activity in a different spectrum of tumours from ZD1694 and to have a more manageable toxicity profile because of the lack of retained cyto- toxic metabolites. […] MATERIALS AND METHODS Drug administration and animals The compound ZD933 1 (Figure 1) was provided as a white crystalline salt. ['4C]inulin was provided as a carboxylic acid (Amersham, UK, 250 µCi in 5 ml, specific activity 6.6 mCi mmol-') and diluted to an activity of 5 µCi ml-' in phosphate-buffered saline (PBS). ZD9331 was dissolved in 0.05 M sodium bicarbonate, 1457 1458 Ml Walton et al ~~ N Ny~~~14COOHH 0 H IN H N CH ~~~~H , 4 H3C N3 H Figure 1 The chemical structure of ZD9331 adjusted to pH 9.0 and administered either i.v. via the tail vein or i.p. at 0.01 ml g-' mouse body weight. [14C]inulin was administered at 0.05 gCi g-' (i.e. 0.01 ml g-') i.v. via the tail vein. Adult female DBA-2 mice were obtained from OLAC (Bicester, UK) and used at 8-12 weeks of age at a body weight of 15-25 g. Mice were housed in cages containing untreated sawdust and allowed access to food and water ad libitum. Sample preparation Plasma and tissue samples were prepared using standard tech- niques (Walton et al, 1996). Briefly, whole blood was obtained by cardiac puncture into heparinized syringes from halothane- anaesthetized mice. Plasma was prepared by centrifugation at 12 000 r.p.m. x 2 min in a bench-top microcentrifuge. Kidney and liver tissues were rapidly removed, washed and snap frozen on dry ice. Frozen plasma and tissues were stored at -20?C for up to 4 weeks prior to analysis. Individual samples were thawed on ice and handled rapidly. ZD9331 was extracted from whole plasma or tissue homogenates (33% w/v in 0.1 M Tris, pH 10.0) by the addition of an equal volume of acetonitrile, mixing and centrifugation and the super- natant removed for injection into the HPLC system. Samples were diluted with Tris buffer (0.1 M, pH 10.0) on to the linear part of the calibration curve prior to HPLC analysis. Extraction efficiencies were >95%. HPLC analysis Concentrations of ZD9331 were measured in biological samples using reversed phase HPLC on equipment supplied by Kontron (Watford, UK). Separations were carried out using stainless-steel columns heated at 45?C and packed with C18 Supelcosil ODS (10 cm x 4.6 mm, 5 µm bead size, Sigma, Dorset) and protected with NewGuard C18 columns (Anachem, Luton, UK). […]

Aqueous solubility = type: physicochemical
[2] = Peak plasma concentration in phase I, 30 min infusion; type: in vivo; settings: after 30 min infusion
L5178Y (TK-/-) lymphoma = system: L5178Y (TK-/-) lymphoma; parameters: method as in Stephens et al, 1994; Jackman et al, 1997; settings: ref Stephens et al, 1994, Jackman et al, 1997, cited from earlier work
[3] = female, ip, kidney, 50 mg kg-1 i.p.
[4] = female, ip, kidney, 200 mg kg-1 i.p.
[5] = female, iv, kidney, 50 mg kg-1 i.v.
[6] = female, iv, kidney, 200 mg kg-1 i.v.

C#CCN(Cc1cc2c(=O)[nH]c(C)nc2cc1C)c1ccc(C(=O)N[C@@H](CCc2nnn[nH]2)C(=O)O)c(F)c1 [ZD9331, (2S)-2-{O-fluoro-p-(N-(2,7-dimethyl-4-oxo-3,4-dihydroquinazolin-6-ylmethyl)-N-(prop-2-ynyl)amino}benzamido}-4-(tetrazol-5-yl)butyric acid]
peak kidney drug level i.p., % lower than i.v. ([1]; 50 mg kg-1): 80%
kidney AUC0-8h i.p. as % of i.v. route ([1]; 200 mg kg-1): 1.8%
kidney drug exposure i.v. versus i.p. ([1]; 200 mg kg-1): 50 fold
peak kidney drug concentration i.v. versus i.p. ([1]; 200 mg kg-1): 20 fold
peak kidney drug level i.p. as % of i.v. value ([1]; 200 mg kg-1): 5%
kidney-plasma ratio at 8 h ([1]; 200 mg kg-1 i.p.): 2 000%
kidney-plasma ratio relative to the lower dose of 50 mg kg-1 ([1]; 200 mg kg-1 i.p.): 2-3 times
kidney-plasma ratio, initial ([1]; 200 mg kg-1 i.p.): 20%
kidney AUC0-8h ([1]; 200 mg kg-1 i.v.): 9660 µM·h
kidney-plasma ratio after 8 h ([1]; 200 mg kg-1 i.v.): 100 000%
kidney-plasma ratio, initial (measured at 5 min) ([1]; 200 mg kg-1 i.v.): > 100%
peak kidney drug level ([1]; 200 mg kg-1 i.v.): 3.62 mM
peak kidney drug level versus lower dose ([1]; 200 mg kg-1 i.v. compared with 50 mg kg-1 i.v.): ~12 fold
Kp at 4 h ([1]; female, DBA-2, mouse, kidney, ip, 50 mg kg-1, 50 mg kg-1 i.p., Discussion, read-out: kidney-plasma ratio, steady-state equilibrium at 4 h): 2 to 4
Kp at 1 h ([1]; female, DBA-2, mouse, kidney, ip, 50 mg kg-1, 50 mg kg-1 i.p., read-out: kidney-plasma ratio after 1 h): 1
Kp ([1]; female, DBA-2, mouse, kidney, ip, 50 mg kg-1, 50 mg kg-1 i.p., read-out: kidney-plasma ratio, steady-state): 1 to 3
Kp at 30 min ([1]; female, DBA-2, mouse, kidney, iv, 50 mg kg-1, 50 mg kg-1 i.v., read-out: kidney-plasma ratio at 30 min): 10
Kp at 2 h ([1]; female, DBA-2, mouse, kidney, iv, 50 mg kg-1, 50 mg kg-1 i.v., read-out: kidney-plasma ratio, equilibrium at 2 h): 2 to 3
Kp ([1]; female, DBA-2, mouse, kidney, iv, 50 mg kg-1, 50 mg kg-1 i.v., read-out: kidney-plasma ratio, initial): 0.35
Kp ([1]; female, DBA-2, mouse, kidney, iv, 200 mg kg-1, 200 mg kg-1 i.v., read-out: kidney concentration relative to plasma, plateau): 400 to 600
Kp at 5 min ([1]; female, DBA-2, mouse, kidney, iv, 200 mg kg-1, 200 mg kg-1 i.v., read-out: kidney-plasma ratio, initial (measured at 5 min)): 1
Kp ([1]; female, DBA-2, mouse, kidney/plasma, ip, 200 mg kg-1, 200 mg kg-1 i.p., read-out: kidney-plasma ratio, increased steadily to): 10 to 20
Kp ([1]; female, DBA-2, mouse, kidney/plasma, ip, 200 mg kg-1, 200 mg kg-1 i.p., read-out: kidney-plasma ratio, initial): 0.23
Cmax [1, 3]: 31500 ng/g and 59.1 µM
Tmax [1, 3]: 10 min
AUC(0-t) [1, 3]: 47.5 µM·h
Cmax [1, 4]: 96400 ng/g and 181 µM
Tmax [1, 4]: 30 min
AUC(0-t) [1, 4]: 179 µM·h
Cmax [1, 5]: 163000 ng/g and 305 µM
Tmax [1, 5]: 10 min
AUC(0-t) [1, 5]: 240 µM·h
Cmax [1, 6]: 1.9e+06 ng/g and 3.62 mM
Tmax [1, 6]: 30 min
AUC(0-t) [1, 6]: 9660 µM·h
solubility (Aqueous solubility; pH 5.3, aqueous buffer): 0.1 mM (≈ 53.3 µg/mL)
solubility (Aqueous solubility; pH 7.4, aqueous buffer): 8 mM (≈ 4260 µg/mL)
peak plasma drug concentration in man as % of that after 200 mg kg-1 i.v. in mouse [2]: < 1%
anti-tumour activity (L5178Y (TK-/-) lymphoma; 24-h s.c. infusion, 3 mg kg-1): anti-tumour activity
anti-tumour activity (L5178Y (TK-/-) lymphoma; bolus administration, 50 mg kg-1): anti-tumour activity
